Assay results taken from patent US11484032B2, “Compositions for inhibition of insect sensing” (Vanderbilt University, priority 2011, dated 2022).

Target: T1, AgORco (Anopheles gambiae, UniProt Q7QCC7)
T1 construct: expressed in transfected cells
T1 sequence (Q7QCC7 1-478): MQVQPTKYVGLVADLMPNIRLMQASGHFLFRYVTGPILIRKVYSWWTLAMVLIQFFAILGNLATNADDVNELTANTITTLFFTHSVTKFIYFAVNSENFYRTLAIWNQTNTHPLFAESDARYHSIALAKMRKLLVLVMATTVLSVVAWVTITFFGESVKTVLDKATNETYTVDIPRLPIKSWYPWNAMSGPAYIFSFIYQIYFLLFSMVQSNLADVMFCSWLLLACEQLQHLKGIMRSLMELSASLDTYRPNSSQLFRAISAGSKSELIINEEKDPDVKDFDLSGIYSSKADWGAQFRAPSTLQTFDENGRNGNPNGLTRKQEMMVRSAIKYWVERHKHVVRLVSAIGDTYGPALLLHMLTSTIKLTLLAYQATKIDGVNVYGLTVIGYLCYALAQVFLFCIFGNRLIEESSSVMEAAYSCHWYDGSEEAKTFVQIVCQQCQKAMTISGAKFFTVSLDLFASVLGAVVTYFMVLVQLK
Test: Whole-cell patch clamp, HEK293 cells stably expressing AgORco alone
Assay type: cell-based
Method: Currents from OR-expressing HEK293 cells were amplified with an Axopatch 200b Amplifier (Axon Instruments) and digitized through a Digidata 1322A (Axon Instruments). Electrophysiological data was recorded and analyzed using pCLAMP 10 (Axon Instruments). Electrodes were fabricated from quartz tubing (Sutter Instruments) and pulled to 4-6 MiΩ for whole cell recording. Electrodes were filled with internal solution (120 mM KCl, 30 mM D-glucose, 10 mM HEPES, 2 mM MgCl2, 1.1 mM EGTA, and 0.1 CaCl2) (pH 7.35, 280 mOsm). External (bath) solution contained 130 mM NaCl, 34 mM D-glucose, 10 mM HEPES, 1.5 mM CaCl2), 1.3 mM KH2PO4, and 0.5 MgSO4 (pH 7.35, 300 mOsm). Compounds were diluted in external solution and locally perfused to the recording cell using Perfusion Pencil (Automate Scientific) and controlled by a ValveLink 8.2 controller (Automate Scientific). Whole cell recordings were sampled at 10 kHz and filtered at 5 kHz. Outside-out patches were obtained using 10-15MΩ electrodes pulled from standard glass capillaries (World Precision Instruments) and fire-polished with an MF-830 micro forge (Narishige). Single channel recordings were sampled at 20 kHz. Recordings were reduced to 1 kHz and low-pass filtered at 500 Hz for display and analysis using QuB (SUNY at Buffalo).
To test the hypothesis that VUAA1 directly agonized AgORco, whole-cell patch clamp responses were examined in AgORco+AgOR10 expressing cells as well as HEK293 cells stably expressing AgORco alone. […] The VUAA1-dependent currents in AgORco+AgOR10 cells resembled those resulting from application of benzaldehyde, an orthosteric agonist of AgOR10 (FIG. 3C) (Wang, 2010; Carey, 2010). […] To investigate the specificity of VUAA1 agonism, the inventors transiently transfected HEK cells with the AgORco orthologs of Drosophila melanogaster and Heliothis virescens, DmORco and HvOR2 respectively.

CCc1ccc(NC(=O)CSc2nnc(-c3cccnc3)n2CC)cc1 [VUAA1, 2-((4-ethyl-5-(pyridin-3-yl)-4H-1,2,4-triazol-3-yl)thio)-N-(4-ethylphenyl)acetamide]
whole-cell current response (AgORco alone cells, holding potential −60 mV): concentration-dependent inward currents
reversal potential of agonist-induced current (AgORco alone, mean s.e.m.): +0.4±1.1 mV
whole-cell current response at −5.0 log M (−5.0 log M): no response
